# Results reported in the supplement of paper PMC10307832.
# Legend:
# Assay in all cases: relative viability (nuclei count vs DMSO), 5 days (fraction); higher = more cells survive
# NCI-H3122 = system: NCI-H3122
# Method in brief: (§1)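 Relative viability equals treated-well nuclei counts divided by vehicle-well nuclei counts. Counts came from 4× images of lung cancer cell lines grown in 1536-well plates for 5 days after pin-tool dosing on the day after seeding. Dosing used one drug alone or a fixed anchor-drug dose plus five library-drug doses (not always all listed) in √10 steps, and values are medians of duplicate plates.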
# LK-2 = system: LK-2
# Method in brief: as §1
# HCC-366 = system: HCC-366
# Method in brief: as §1
# RERF-LC-KJ = system: RERF-LC-KJ
# Method in brief: as §1
# LC-2-ad = system: LC-2-ad
# Method in brief: as §1
# SK-MES-1 = system: SK-MES-1
# Method in brief: as §1
# HCC-78 = system: HCC-78
# Method in brief: as §1
# NCI-H838 = system: NCI-H838
# Method in brief: as §1
# NCI-H2405 = system: NCI-H2405
# Method in brief: as §1
# NCI-H2228 = system: NCI-H2228
# Method in brief: as §1
# HOP-62 = system: HOP-62
# Method in brief: as §1
# NCI-H1355 = system: NCI-H1355
# Method in brief: as §1
# NCI-H596 = system: NCI-H596
# Method in brief: as §1
# NCI-H1734 = system: NCI-H1734
# Method in brief: as §1
# NCI-H2085 = system: NCI-H2085
# Method in brief: as §1
# SW 1573 = system: SW 1573
# Method in brief: as §1
# CAL-12T = system: CAL-12T
# Method in brief: as §1
# NCI-H2009 = system: NCI-H2009
# Method in brief: as §1
# NCI-H1993 = system: NCI-H1993
# Method in brief: as §1
# PC-14 = system: PC-14
# Method in brief: as §1
# NCI-H2347 = system: NCI-H2347
# Method in brief: as §1
# EMC-BAC-2 = system: EMC-BAC-2
# Method in brief: as §1
# ChaGo-K-1 = system: ChaGo-K-1
# Method in brief: as §1
structure (smiles),measurement,setting,value
Cc1cnc(-c2cnc(NCCNc3ccc(C#N)cn3)nc2-c2ccc(Cl)cc2Cl)[nH]1 + O=C(c1cc(Cc2n[nH]c(=O)c3ccccc23)ccc1F)N1CCN(C(=O)C2CC2)CC1 [Olaparib] (partner 8 µM),relative viability,NCI-H3122; first compound 0.08 µM,0.568
same,relative viability,NCI-H3122; first compound 0.8 µM,0.651
same,relative viability,NCI-H3122; first compound 2.53 µM,0.545
same,relative viability,LK-2; first compound 0.08 µM,0.728
same,relative viability,LK-2; first compound 0.253 µM,0.543
same,relative viability,LK-2; first compound 0.8 µM,0.611
same,relative viability,LK-2; first compound 2.53 µM,0.78
same,relative viability,HCC-366; first compound 0.08 µM,0.375
same,relative viability,HCC-366; first compound 0.253 µM,0.297
same,relative viability,HCC-366; first compound 0.8 µM,0.338
same,relative viability,RERF-LC-KJ; first compound 0.08 µM,0.902
same,relative viability,RERF-LC-KJ; first compound 0.253 µM,0.65
same,relative viability,RERF-LC-KJ; first compound 0.8 µM,0.839
same,relative viability,RERF-LC-KJ; first compound 2.53 µM,0.858
same,relative viability,LC-2-ad; first compound 0.08 µM,0.657
same,relative viability,LC-2-ad; first compound 0.8 µM,0.73
same,relative viability,LC-2-ad; first compound 2.53 µM,0.645
same,relative viability,SK-MES-1; first compound 0.08 µM,0.734
same,relative viability,SK-MES-1; first compound 0.253 µM,0.704
same,relative viability,SK-MES-1; first compound 0.8 µM,0.738
same,relative viability,SK-MES-1; first compound 2.53 µM,0.762
same,relative viability,HCC-78; first compound 0.08 µM,0.865
same,relative viability,HCC-78; first compound 0.253 µM,0.588
same,relative viability,HCC-78; first compound 0.8 µM,0.737
same,relative viability,HCC-78; first compound 2.53 µM,0.834
same,relative viability,NCI-H838; first compound 0.08 µM,0.756
same,relative viability,NCI-H838; first compound 0.253 µM,0.768
same,relative viability,NCI-H838; first compound 0.8 µM,0.796
same,relative viability,NCI-H838; first compound 2.53 µM,0.75
same,relative viability,NCI-H2405; first compound 0.08 µM,0.882
same,relative viability,NCI-H2405; first compound 0.253 µM,0.771
same,relative viability,NCI-H2405; first compound 0.8 µM,0.88
same,relative viability,NCI-H2405; first compound 2.53 µM,0.661
same,relative viability,NCI-H2228; first compound 0.08 µM,0.56
same,relative viability,NCI-H2228; first compound 0.253 µM,0.332
same,relative viability,NCI-H2228; first compound 0.8 µM,0.732
same,relative viability,NCI-H2228; first compound 2.53 µM,0.419
same,relative viability,HOP-62; first compound 0.08 µM,0.354
same,relative viability,HOP-62; first compound 0.253 µM,0.362
same,relative viability,HOP-62; first compound 0.8 µM,0.502
same,relative viability,HOP-62; first compound 2.53 µM,0.324
same,relative viability,NCI-H1355; first compound 0.08 µM,0.793
same,relative viability,NCI-H1355; first compound 0.253 µM,0.648
same,relative viability,NCI-H1355; first compound 0.8 µM,0.749
same,relative viability,NCI-H1355; first compound 2.53 µM,0.716
same,relative viability,NCI-H596; first compound 0.08 µM,1.09
same,relative viability,NCI-H596; first compound 0.253 µM,0.736
same,relative viability,NCI-H596; first compound 0.8 µM,0.775
same,relative viability,NCI-H596; first compound 2.53 µM,0.724
same,relative viability,NCI-H1734; first compound 0.08 µM,0.635
same,relative viability,NCI-H1734; first compound 0.253 µM,0.622
same,relative viability,NCI-H1734; first compound 0.8 µM,0.644
same,relative viability,NCI-H1734; first compound 2.53 µM,0.516
same,relative viability,NCI-H2085; first compound 0.08 µM,0.804
same,relative viability,NCI-H2085; first compound 0.253 µM,0.792
same,relative viability,NCI-H2085; first compound 0.8 µM,0.711
same,relative viability,NCI-H2085; first compound 2.53 µM,0.79
same,relative viability,SW 1573; first compound 0.08 µM,0.532
same,relative viability,SW 1573; first compound 0.253 µM,0.406
same,relative viability,SW 1573; first compound 0.8 µM,0.494
same,relative viability,SW 1573; first compound 2.53 µM,0.233
same,relative viability,CAL-12T; first compound 0.08 µM,0.686
same,relative viability,CAL-12T; first compound 0.253 µM,0.698
same,relative viability,CAL-12T; first compound 0.8 µM,0.802
same,relative viability,CAL-12T; first compound 2.53 µM,0.756
same,relative viability,NCI-H2009; first compound 0.08 µM,0.746
same,relative viability,NCI-H2009; first compound 0.253 µM,0.661
same,relative viability,NCI-H2009; first compound 0.8 µM,0.697
same,relative viability,NCI-H2009; first compound 2.53 µM,0.605
same,relative viability,NCI-H1993; first compound 0.08 µM,1.1
same,relative viability,NCI-H1993; first compound 0.253 µM,0.855
same,relative viability,NCI-H1993; first compound 0.8 µM,1.13
same,relative viability,NCI-H1993; first compound 2.53 µM,1.2
same,relative viability,PC-14; first compound 0.08 µM,0.242
same,relative viability,PC-14; first compound 0.253 µM,0.235
same,relative viability,PC-14; first compound 0.8 µM,0.296
same,relative viability,PC-14; first compound 2.53 µM,0.233
same,relative viability,NCI-H2347; first compound 0.08 µM,0.623
same,relative viability,NCI-H2347; first compound 0.253 µM,0.495
same,relative viability,NCI-H2347; first compound 0.8 µM,0.663
same,relative viability,NCI-H2347; first compound 2.53 µM,0.587
same,relative viability,EMC-BAC-2; first compound 0.08 µM,0.498
same,relative viability,EMC-BAC-2; first compound 0.253 µM,0.466
same,relative viability,EMC-BAC-2; first compound 0.8 µM,0.504
same,relative viability,EMC-BAC-2; first compound 2.53 µM,0.397
same,relative viability,ChaGo-K-1; first compound 0.08 µM,0.406
same,relative viability,ChaGo-K-1; first compound 0.253 µM,0.361
same,relative viability,ChaGo-K-1; first compound 0.8 µM,0.362
same,relative viability,ChaGo-K-1; first compound 2.53 µM,0.322
